Literature values, collected in patent US5714342A, “Compositions for the detection of protease in biological samples and methods of use therefo” (OncoImmunin, Inc., priority 1995, dated 1998).

Settings: literature (Forster and Konig 1957; Arbeloa and Ojeda 1982); cited from earlier work

| Compound | concentration at which ground-state dimerization of free dye in solution was observed |
| --- | --- |
| O=C1OC2(c3ccccc31)c1cc(Br)c(O)c(Br)c1Oc1c2cc(Br)c(O)c1Br [Eosin] | higher than 2.8×10^-2 M |
| CCN(CC)c1ccc2c(-c3ccccc3C(=O)O)c3ccc(=[N+](CC)CC)cc-3oc2c1 [Rhodamine B] | higher than 6×10^-4 M |
| O=C1OC2(c3ccc(O)cc3Oc3cc(O)ccc32)c2ccccc21 [fluorescein] | > 0.74 M |
